Measured values published in PubChem BioAssay AID200 (DTP/NCI, 2004).
Several values for one entry are separate records, joined by “and”; a condition that tells them apart may be missing. Equal entries are not always repeated. Inconclusive results and toxic doses are left out. Where a SMILES comes first, the peptide text is derived from it.

System: B6C3F1 mice, B16 melanoma ip, median survival T/C
Experiment: NCI In Vivo Anticancer Drug Screen. Data for tumor model B16 Melanoma (intraperitoneal) in B6C3F1 mice
Conditions: endpoint: median survival time, higher = longer survival
In short: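 Tumor-bearing mice received test compound; a separate group got vehicle only. Survival was then compared, with results reported as treated over control.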

[1] = dose: 2.0 mg/kg/injection, schedule: Q01DX009 (ip), vehicle: saline with Tween-80
[2] = dose: 25.0 mg/kg/injection, schedule: Q01DX009 (ip), vehicle: saline
[3] = dose: 50.0 mg/kg/injection, schedule: Q01DX009 (ip), vehicle: saline
[4] = dose: 100.0 mg/kg/injection, schedule: Q01DX009 (ip), vehicle: saline
[5] = dose: 200.0 mg/kg/injection, schedule: Q01DX009 (ip), vehicle: saline
[6] = dose: 400.0 mg/kg/injection, schedule: Q01DX009 (ip), vehicle: saline
[7] = dose: 50.0 mg/kg/injection, schedule: Q01DX009 (ip), vehicle: saline with Tween-80
[8] = dose: 100.0 mg/kg/injection, schedule: Q01DX009 (ip), vehicle: saline with Tween-80
[9] = dose: 1.5 mg/kg/injection, schedule: Q01DX009 (ip), vehicle: Klucel (hydroxypropylcellulose) (HPC)

## COc1cc(NS(C)(=O)=O)ccc1Nc1c2ccccc2nc2ccccc12
dose: 0.5 mg/kg/injection, schedule: Q01DX009 (ip), vehicle: other
  T/C: 166 % of control and 168 % of control
dose: 1.0 mg/kg/injection, schedule: Q01DX005 (ip), vehicle: other
  T/C: 195 % of control
dose: 1.0 mg/kg/injection, schedule: Q01DX005 (iv), vehicle: other
  T/C: 101 % of control
dose: 1.0 mg/kg/injection, schedule: Q01DX011 (ip), vehicle: saline with Tween-80
  T/C: 175 % of control
dose: 2.0 mg/kg/injection, schedule: Q01DX005 (ip), vehicle: clinical formulation
  T/C: 177 % of control
dose: 2.0 mg/kg/injection, schedule: Q01DX005 (iv), vehicle: clinical formulation
  T/C: 99 % of control
dose: 2.0 mg/kg/injection, schedule: Q01DX005 (oral), vehicle: other
  T/C: 100 % of control
[1]
  T/C: 193 % of control
dose: 2.0 mg/kg/injection, schedule: Q01DX011 (ip), vehicle: saline with Tween-80
  T/C: 209 % of control
dose: 4.0 mg/kg/injection, schedule: Q01DX005 (ip), vehicle: clinical formulation
  T/C: 275 % of control
dose: 4.0 mg/kg/injection, schedule: Q01DX005 (oral), vehicle: other
  T/C: 104 % of control
dose: 4.0 mg/kg/injection, schedule: Q01DX009 (ip), vehicle: saline with Tween-80
  T/C: 253 % of control
dose: 4.0 mg/kg/injection, schedule: Q01DX009 (ip), vehicle: saline
  T/C: 187 % of control and 213 % of control and 222 % of control
dose: 4.0 mg/kg/injection, schedule: Q01DX011 (ip), vehicle: saline with Tween-80
  T/C: 63 % of control
dose: 4.0 mg/kg/injection, schedule: Q01DX011 (oral), vehicle: saline with Tween-80
  T/C: 98 % of control
dose: 8.0 mg/kg/injection, schedule: Q01DX001 (iv), vehicle: clinical formulation
  T/C: 105 % of control
dose: 8.0 mg/kg/injection, schedule: Q01DX005 (oral), vehicle: other
  T/C: 103 % of control
dose: 8.0 mg/kg/injection, schedule: Q01DX009 (ip), vehicle: saline with Tween-80
  T/C: 283 % of control
dose: 8.0 mg/kg/injection, schedule: Q01DX011 (oral), vehicle: saline with Tween-80
  T/C: 92 % of control
dose: 16.0 mg/kg/injection, schedule: Q01DX001 (iv), vehicle: clinical formulation
  T/C: 112 % of control

## O=C(O)CCC(NC(=O)OCc1ccccc1)C(=O)NCC(=O)O (stereo unspecified) (HELM PEPTIDE1{[O=C(OCc1ccccc1)[*:2]].[O=C(O)CCC(N[*:1])C(=O)[*:2]].G}$$$$V2.0)
[2]
  T/C: 102 % of control
[3]
  T/C: 97 % of control
[4]
  T/C: 107 % of control
[5]
  T/C: 113 % of control
[6]
  T/C: 112 % of control

## CC1=C[S+](c2ccccc2)c2cccc3cc4ccccc4c1c23 (stereo unspecified)
dose: 0.06 mg/kg/injection, schedule: Q01DX009 (ip), vehicle: saline with Tween-80
  T/C: 106 % of control
dose: 0.12 mg/kg/injection, schedule: Q01DX009 (ip), vehicle: saline with Tween-80
  T/C: 103 % of control
dose: 0.25 mg/kg/injection, schedule: Q01DX009 (ip), vehicle: saline with Tween-80
  T/C: 115 % of control
dose: 0.5 mg/kg/injection, schedule: Q01DX009 (ip), vehicle: saline with Tween-80
  T/C: 100 % of control
dose: 1.0 mg/kg/injection, schedule: Q01DX009 (ip), vehicle: saline with Tween-80
  T/C: 111 % of control
[1]
  T/C: 112 % of control and 106 % of control

## COc1cccc2c1C(=O)c1c(O)c3c(c(O)c1C2=O)CC(O)(C(C)=O)CC3OC1CC(NC(=O)C(CCCCN)NC(=O)C2CCCN2)C(O)C(C)O1 (stereo unspecified)
dose: 1.25 mg/kg/injection, schedule: Q01DX001 (ip), vehicle: water
  T/C: 112 % of control
dose: 2.5 mg/kg/injection, schedule: Q01DX001 (ip), vehicle: water
  T/C: 110 % of control
dose: 20.0 mg/kg/injection, schedule: Q01DX001 (ip), vehicle: water
  T/C: 176 % of control
dose: 40.0 mg/kg/injection, schedule: Q01DX001 (ip), vehicle: water
  T/C: 267 % of control

## [N-]=[N+]=CC(=O)CCC(NC(=O)OCc1ccccc1)C(=O)OCc1ccccc1 (stereo unspecified)
dose: 25.0 mg/kg/injection, schedule: Q01DX009 (ip), vehicle: Klucel (hydroxypropylcellulose) (HPC)
  T/C: 93 % of control
dose: 50.0 mg/kg/injection, schedule: Q01DX009 (ip), vehicle: Klucel (hydroxypropylcellulose) (HPC)
  T/C: 96 % of control

## COC(=O)Nc1ccc(Cc2ccc(NC(=O)OC)cc2)cc1
dose: 6.25 mg/kg/injection, schedule: Q01DX009 (ip), vehicle: saline with Tween-80
  T/C: 98 % of control
dose: 12.5 mg/kg/injection, schedule: Q01DX009 (ip), vehicle: saline with Tween-80
  T/C: 99 % of control
dose: 25.0 mg/kg/injection, schedule: Q01DX009 (ip), vehicle: saline with Tween-80
  T/C: 109 % of control and 98 % of control
[7]
  T/C: 109 % of control
[8]
  T/C: 150 % of control

## CCOC(=O)c1c[nH]c2oc(/C=N/N3CC(CN4CCOCC4)OC3=O)cc2c1=O (stereo unspecified)
dose: 12.5 mg/kg/injection, schedule: Q01DX009 (ip), vehicle: saline
  T/C: 112 % of control
[2]
  T/C: 118 % of control
[3]
  T/C: 117 % of control

## O=C(CCl)NC(Cc1ccccc1)C(=O)O (stereo unspecified)
[7]
  T/C: 88 % of control
[8]
  T/C: 90 % of control
dose: 200.0 mg/kg/injection, schedule: Q01DX009 (ip), vehicle: saline with Tween-80
  T/C: 90 % of control

## CCOC(=O)NC1CCc2cc(OC)c(OC)c(OC)c2-c2ccc(OC)c(=O)cc21 (stereo unspecified)
[9]
  T/C: 152 % of control
dose: 2.5 mg/kg/injection, schedule: Q01DX009 (ip), vehicle: Klucel (hydroxypropylcellulose) (HPC)
  T/C: 150 % of control and 152 % of control
dose: 4.16 mg/kg/injection, schedule: Q01DX009 (ip), vehicle: Klucel (hydroxypropylcellulose) (HPC)
  T/C: 154 % of control

## C[CH2][Pb]([CH2]C)([CH2]C)[O]C(=O)COc1ccccc1
dose: 0.38 mg/kg/injection, schedule: Q01DX009 (ip), vehicle: Klucel (hydroxypropylcellulose) (HPC)
  T/C: 94 % of control
dose: 0.75 mg/kg/injection, schedule: Q01DX009 (ip), vehicle: Klucel (hydroxypropylcellulose) (HPC)
  T/C: 105 % of control
[9]
  T/C: 101 % of control
dose: 3.0 mg/kg/injection, schedule: Q01DX009 (ip), vehicle: Klucel (hydroxypropylcellulose) (HPC)
  T/C: 91 % of control
dose: 6.0 mg/kg/injection, schedule: Q01DX009 (ip), vehicle: Klucel (hydroxypropylcellulose) (HPC)
  T/C: 97 % of control

## CCN(CC)C(=S)S
[3]
  T/C: 92 % of control
dose: 50.0 mg/kg/injection, schedule: Q01DX009 (ip), vehicle: sodium bicarbonate
  T/C: 105 % of control
[4]
  T/C: 96 % of control
dose: 100.0 mg/kg/injection, schedule: Q01DX009 (ip), vehicle: sodium bicarbonate
  T/C: 92 % of control
[5]
  T/C: 102 % of control
dose: 200.0 mg/kg/injection, schedule: Q01DX009 (ip), vehicle: sodium bicarbonate
  T/C: 105 % of control
[6]
  T/C: 94 % of control
dose: 400.0 mg/kg/injection, schedule: Q01DX009 (ip), vehicle: sodium bicarbonate
  T/C: 105 % of control
dose: 800.0 mg/kg/injection, schedule: Q01DX009 (ip), vehicle: saline
  T/C: 95 % of control
dose: 800.0 mg/kg/injection, schedule: Q01DX009 (ip), vehicle: sodium bicarbonate
  T/C: 95 % of control

## CC(=O)CC(c1ccccc1)c1c(O)c2ccccc2oc1=O (stereo unspecified)
dose: 0.05 mg/kg/injection, schedule: Q01DX009 (ip), vehicle: Klucel (hydroxypropylcellulose) (HPC)
  T/C: 95 % of control
dose: 0.05 mg/kg/injection, schedule: Q01DX009 (ip), vehicle: saline with Tween-80
  T/C: 121 % of control and 106 % of control
dose: 0.1 mg/kg/injection, schedule: Q01DX009 (ip), vehicle: Klucel (hydroxypropylcellulose) (HPC)
  T/C: 104 % of control
dose: 0.1 mg/kg/injection, schedule: Q01DX009 (ip), vehicle: saline with Tween-80
  T/C: 91 % of control
dose: 0.2 mg/kg/injection, schedule: Q01DX009 (ip), vehicle: Klucel (hydroxypropylcellulose) (HPC)
  T/C: 93 % of control
dose: 0.2 mg/kg/injection, schedule: Q01DX009 (ip), vehicle: saline with Tween-80
  T/C: 124 % of control and 87 % of control
dose: 0.4 mg/kg/injection, schedule: Q01DX009 (ip), vehicle: Klucel (hydroxypropylcellulose) (HPC)
  T/C: 108 % of control
dose: 0.4 mg/kg/injection, schedule: Q01DX009 (ip), vehicle: saline with Tween-80
  T/C: 111 % of control
dose: 0.8 mg/kg/injection, schedule: Q01DX009 (ip), vehicle: Klucel (hydroxypropylcellulose) (HPC)
  T/C: 98 % of control
dose: 0.8 mg/kg/injection, schedule: Q01DX009 (ip), vehicle: saline with Tween-80
  T/C: 103 % of control
